Laboratory results: PMC12045974, “T cell toxicity induced by tigecycline binding to the mitochondrial ribosome” (Nature Communications, 2025)
Where “and” joins values, the source holds several entries; their conditions need not be identical. Equal entries are not always repeated. Where two headings read alike, the source gives them in different places.

Key:
Jurkat T cells = assay: Cell viability assay (CCK-8), Jurkat T cells; type: cell-based, human; conditions: for cell vialibity normalized to Vehicle (DMSO): in % (unit assumed)
Summary of the method: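 This CCK-8 viability assay used Jurkat T cells seeded at 6000 per well and grown in supplemented RPMI-1640, 100 μl per well. Antibiotic stocks in DMSO were diluted in medium to give 9 concentrations, and untreated wells received matching DMSO. After treatment, cells were incubated with 10% CCK-8 for 3 h. Results were normalized to vehicle, technical repeats were plotted as mean ± SEM, and IC50 values were derived.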

HeLa cells = assay: Cell viability assay (CCK-8), HeLa cells; type: cell-based; conditions: in % (unit assumed)
Description: (§1) Cells were seeded in 96-well plates ranging from 2000 to 15,000 cells per well depending on different cell lines and treated with antibiotics in serial dilutions for 72 h (120 h for the preliminary assays) in a humidified incubator (37 °C, 5% CO2) in 100 μl medium (DMEM with 10% FBS, 2.05 mM L-glutamine (Sigma) for Hek293 and Hela; RPMI-1640 with 10% FBS, 2.05 mM L-glutamine (Sigma), and 55 μM 2-ME (Gibco) for Jurkat T cells and PBMCs). Based on preliminary tests, the number of cells per well was optimized to 2000 for Hela and Hek293, 6000 for Jurkat T cells, and 15,000 for PBMCs. The stocks of antibiotics were prepared by dissolving in DMSO. As control, the same amount of DMSO was added to the non-treated groups. Serial drug dilutions were prepared in the corresponding medium to provide a total of 9 concentrations up to 300 μM for tetracyclines and up to 900 μM for additional bacterial protein synthesis inhibitors. After drug treatment, 10% CCK-8 (Cell Counting Kit-8, Sigma Aldrich) (10 μl per well) of the total volume was added to the cells and incubated for 1–4 h depending on cell lines (1 h for Hela and Hek293; 3 h for Jurkat T cells; 4 h for PBMCs) before the evaluation of the effect of antibiotics on cell viability. […] Results were visually confirmed under the light microscope. Each treatment was performed in technical repeats. Dose-response curves were plotted, mean ± SEM was shown, and half maximal inhibitory concentration (IC50) values were calculated in GraphPad Prism.

PBMCs = assay: Cell viability assay (CCK-8), PBMCs; type: cell-based, human; conditions: Homo sapiens, PBMC, 72 h, PBMCs, read-out: cell vialibity normalized to Vehicle (DMSO)
Description: as §1, with “Buffy coats were ordered from anonymous blood donors at […]. […] Cells” for “Cells”, “1-4” for “1–4”

[1] = system: mitochondrial translation; assay: 35S metabolic labeling, de novo mitochondrial translation assay in Jurkat T cells; type: cell-based, human; conditions: 5 μM, 18 h of treatment
Description: Jurkat T cells were seeded in 6-well plates at a density of 1 million cells/ml and cultured with different concentrations of antibiotics for 18 h in RPMI-1640 medium (with 10% FBS, 2.05 mM L-glutamine (Sigma), and 55 μM 2-ME (Gibco)). After centrifugation, cells were incubated twice for 5 min at 37 °C in Cys-/Met-free medium (DMEM, high glucose, no glutamine, no methionine, no cysteine, supplemented with 10% dialyzed fetal bovine serum, 1× GlutaMax, and sodium pyruvate), followed by 20 min incubation at 37 °C in Cys-/Met-free medium supplemented with 100 µg/ml emetine to inhibit cytosolic translation (only for mitochondrial translation groups). Subsequently, 1 ml Cys-/Met-free medium supplemented with 200 (for cytosolic translation) or 400 µCi (for mitochondrial translation) of EasyTag EXPRESS [^35S] protein labeling mix (methionine and cysteine) (Perkin Elmer) were added to each sample and incubated for 20 min at 37 °C, 5% CO2. Following labeling, cells were washed three times with 1 ml PBS, harvested by centrifugation (400 × g, 10 min, 4 °C), and stored at −20 °C. Cells were lysed by resuspension in 30 µl PBS supplemented with a Complete EDTA-free protease inhibitor cocktail and 50 U Benzonase nuclease (Sigma) and by application of one freeze-thaw cycle. Protein contents were determined by Pierce BCA assay (Thermo Fisher). […]

In the case of `C[C@H]1c2cccc(O)c2C(=O)C2=C(O)[C@]3(O)C(=O)C(C(N)=O)=C(O)[C@@H](N(C)C)[C@@H]3[C@@H](O)[C@@H]21` [Doxycycline, doxycycline], the IC50 (Jurkat T cells; Homo sapiens, 120 h, Jurkat T cells, after 5 days, read-out: IC50 (cell survival)) is reported as 6.93 µM, the “cell vialibity normalized to Vehicle (DMSO)” value (“cell vialibity normalized” for short) (Jurkat T cells; Jurkat 3d, dose 1 μM) is reported as 102.781 and 111.139 and 99.3878 and 96.4732 and 90.2582 and the “cell vialibity normalized” value (Jurkat T cells; Jurkat 3d, dose 5 μM) is reported as 115.784 and 120.149 and 111.073 and 98.3364 and 101.664. The “cell vialibity normalized” value (Jurkat T cells; Jurkat 3d, dose 10 μM) was 38.4083 and 33.5773 and 30.3966 and 27.7083 and 36.9178, the “cell vialibity normalized” value (Jurkat T cells; Jurkat 3d, dose 50 μM) was 15.6109 and 16.1964 and 17.4075 and 16.8885 and 14.799 and the “cell vialibity normalized” value (Jurkat T cells; Jurkat 3d, dose 100 μM) was 22.9705 and 21.6928 and 21.7195 and 21.0407 and 21.5331. The “cell vialibity normalized” value (Jurkat T cells; Jurkat 5d, dose 1 μM) was 114.324 and 76.849 and 78.0026 and 73.9947 and 75.2933, the “cell vialibity normalized” value (Jurkat T cells; Jurkat 5d, dose 5 μM) was 77.1127 and 72.762 and 88.7937 and 109.835 and 79.8088 and the “cell vialibity normalized” value (Jurkat T cells; Jurkat 5d, dose 10 μM) was 12.7884 and 10.534 and 11.8194 and 11.8853 and 12.2149. For the same compound, the “cell vialibity normalized” value (Jurkat T cells; Jurkat 5d, dose 50 μM) was 9.394 and 7.97 and 7.877 and 8.029 and 7.9499, the “cell vialibity normalized” value (Jurkat T cells; Jurkat 5d, dose 100 μM) was 12.3797 and 14.0541 and 16.7699 and 13.5333 and 13.3553 and the “cell vialibity normalized” value (Jurkat T cells; Jurkat, 72 h, dose 0.0457247 μM, Fig. 1A) was 104.061 and 104.425 and 103.549. For the same compound, the “cell vialibity normalized” value (Jurkat T cells; Jurkat, 72 h, dose 0.137174 μM, Fig. 1A) was 102.734 and 100.282 and 102.099, the “cell vialibity normalized” value (Jurkat T cells; Jurkat, 72 h, dose 0.411523 μM, Fig. 1A) was 102.372 and 108.487 and 106.988 and the “cell vialibity normalized” value (Jurkat T cells; Jurkat, 72 h, dose 1.23457 μM, Fig. 1A) was 101.608 and 103.54 and 101.759. For the same compound, the “cell vialibity normalized” value (Jurkat T cells; Jurkat, 72 h, dose 3.7037 μM, Fig. 1A) was 101.93 and 103.62 and 98.3642, the “cell vialibity normalized” value (Jurkat T cells; Jurkat, 72 h, dose 11.1111 μM, Fig. 1A) was 87.2939 and 95.2132 and 89.0432 and the “cell vialibity normalized” value (Jurkat T cells; Jurkat, 72 h, dose 33.3333 μM, Fig. 1A) was 14.5557 and 15.5672 and 13.1235. The “cell vialibity normalized” value (Jurkat T cells; Jurkat, 72 h, dose 100 μM, Fig. 1A) was 5.107 and 4.7868 and 3.556, the “cell vialibity normalized” value (HeLa cells; Hela 3d, dose 1 μM) was 90.6648 and 96.338 and 89.6672 and 89.6605 and 88.6496 and the “cell vialibity normalized” value (HeLa cells; Hela 3d, dose 5 μM) was 84.5992 and 86.2752 and 82.4709 and 76.6381 and 79.4714. The “cell vialibity normalized” value (HeLa cells; Hela 3d, dose 10 μM) was 79.4248 and 81.7526 and 84.3598 and 79.9369 and 77.0704, the “cell vialibity normalized” value (HeLa cells; Hela 3d, dose 50 μM) was 73.5987 and 75.9863 and 80.8614 and 86.3816 and 72.8139 and the “cell vialibity normalized” value (HeLa cells; Hela 3d, dose 100 μM) was 66.9345 and 67.3003 and 64.2675 and 62.1126 and 67.4466. The “cell vialibity normalized” value (HeLa cells; Hela 5d, dose 1 μM) was 99.6093 and 93.5325 and 94.7977 and 102.368 and 101.019, the “cell vialibity normalized” value (HeLa cells; Hela 5d, dose 5 μM) was 109.557 and 87.6871 and 94.9961 and 97.211 and 96.619 and the “cell vialibity normalized” value (HeLa cells; Hela 5d, dose 10 μM) was 94.5723 and 89.5534 and 92.3875 and 106.137 and 99.0323. The “cell vialibity normalized” value (HeLa cells; Hela 5d, dose 50 μM) was 75.251 and 76.5432 and 75.1938 and 78.2863 and 73.7483, the “cell vialibity normalized” value (HeLa cells; Hela 5d, dose 100 μM) was 73.589 and 66.6556 and 71.8609 and 76.0624 and 69.5949 and the viability at 0.0457247 µM (PBMCs; dose 0.0457247 μM, Fig. 1A) was 105%. For the same compound, the viability at 0.137174 µM (PBMCs; dose 0.137174 μM, Fig. 1A) was 100%, the viability at 0.411523 µM (PBMCs; Fig. 1A) was 101% and the viability at 0.411523 µM (PBMCs; Fig. 1B) was 103%. The viability at 3.7037 µM (PBMCs; Fig. 1A) was 103%, the viability at 3.7037 µM (PBMCs; Fig. 1B) was 135% and the viability at 33.3333 µM (PBMCs; Fig. 1A) was 89.9%. The viability at 33.3333 µM (PBMCs; Fig. 1B) was 19.7%, the viability at 100 µM (PBMCs; dose 100 μM, Fig. 1A) was 34.7% and the “inhibition of mitochondrial translation” value [1] was “weaker inhibition”.
